Experiment: plasma pharmacokinetics of probe cocktail substrates and metabolites with and without adavosertib in patients
Details: for increase in Cmax on adavosertib co-administration / increase in exposure (AUC0–12) on adavosertib co-administration / increase in exposure (AUC0–t) on adavosertib co-administration: adavosertib 225 mg bid vs cocktail alone; for Point estimates of the geometric LS mean ratios S + AD/S, % (90% CI): AUC / Point estimates of the geometric LS mean ratios S + AD/S, % (90% CI): AUC0–t / Point estimates of the geometric LS mean ratios S + AD/S, % (90% CI): Cmax: substrate + adavosertib 225 mg bid vs substrate alone; for Vd/F: Mean Vz/F, L (SD)
Experimental: This sampling period was selected based on the half-lives of the probe substrates.
Plasma concentrations for caffeine, paraxanthine, omeprazole, 5-HO, midazolam, and 1ʹ-HM were all determined by high-performance liquid chromatography–tandem mass spectrometry (HPLC–MS/MS) at Labcorp Bioanalytical Laboratories (Madison, WI, USA).
Plasma concentrations of caffeine and paraxanthine collected with K2EDTA as anticoagulant were determined by HPLC–MS/MS detection simultaneously. The standard curves of caffeine and paraxanthine both ranged from 25.0 to 20,000 ng/mL. […] The lower limit of quantification (LLOQ) was 25.0 ng/mL for caffeine and paraxanthine.
Plasma concentrations of omeprazole and 5-HO were collected with lithium heparin as anticoagulant and were determined by HPLC–MS/MS detection simultaneously. […] The LLOQ was 20.0 nM for omeprazole and 5-HO.
Plasma concentrations of midazolam and 1ʹ-HM were collected with K2EDTA as anticoagulant and were determined by HPLC–MS/MS detection simultaneously. The standard curves of midazolam and 1ʹ-HM both ranged from 0.100 to 100 ng/mL. […] The LLOQ was 0.1 ng/mL for midazolam and 1ʹ-HM.
PK parameters were derived using non-compartmental methods with Phoenix® WinNonlin® version 6.4 (Certara, LP, Princeton, NJ, USA). All descriptive and inferential statistical computations were performed using SAS® version 9.1 (SAS Institute, Cary, NC, USA).

[1] = − AD (cocktail alone, period 1)

OCc1ncc2n1-c1ccc(Cl)cc1C(c1ccccc1F)=NC2 [1ʹ-HM, 1ʹ-hydroxymidazolam]
increase in Cmax on adavosertib co-administration: 33%
increase in exposure (AUC0–12) on adavosertib co-administration: 54%
increase in exposure (AUC0–t) on adavosertib co-administration: 58%
Point estimates of the geometric LS mean ratios S + AD/S, % (90% CI): AUC: 153.5 (131.0–179.8) %
Point estimates of the geometric LS mean ratios S + AD/S, % (90% CI): AUC0–t: 158.2 (139.1–180.0) %
Point estimates of the geometric LS mean ratios S + AD/S, % (90% CI): Cmax: 133.4 (106.5–167.1) %
Mean MR (metabolic ratio in relation to parent compound), AUC (− AD): 0.41
Mean MR (metabolic ratio in relation to parent compound), AUC0–t (− AD): 0.43
Mean MR (metabolic ratio in relation to parent compound), Cmax (− AD): 0.47
Mean t½ h (SD) [1]: 7.2 (6.1) h
Median tmax, h (range) [1]: 0.5 (0.3–2.1) h

COc1ccc2nc([S+]([O-])Cc3ncc(CO)c(OC)c3C)[nH]c2c1 (stereo not shown) [5-HO, 5-hydroxyomeprazole]
Mean MR (metabolic ratio in relation to parent compound), AUC (human, in vivo): 0.50
Mean MR (metabolic ratio in relation to parent compound), AUC0–t (human, in vivo): 0.73
Mean MR (metabolic ratio in relation to parent compound), Cmax (human, in vivo): 0.53
Mean t½ h (SD) (human, in vivo): 2.7 (1.7) h
Median tmax, h (range) (human, in vivo): 3.0 (0.7–6.0) h

Cn1c(=O)c2c(ncn2C)n(C)c1=O [Caffeine, caffeine, reference compound]
Mean CL/F, L/h (SD) (human, in vivo): 5.7 (2.5) L/h
Mean t½ h (SD) (human, in vivo): 6.4 (3.8) h
Median tmax, h (range) (human, in vivo): 0.5 (0.3–3.0) h
Vd/F (human, in vivo): 39.3 L

Cc1ncc2n1-c1ccc(Cl)cc1C(c1ccccc1F)=NC2 [Midazolam, midazolam, reference compound]
increase in Cmax on adavosertib co-administration: 39%
increase in exposure (AUC0–12) on adavosertib co-administration: 55%
increase in exposure (AUC0–t) on adavosertib co-administration: 55%
half-life (human, in vivo): 5.5 h
Vd/F (human, in vivo, + AD (adavosertib 225 mg bid, period 2)): 364 L
Vd/F (human, in vivo, − AD (cocktail alone, period 1)): 410 L
Point estimates of the geometric LS mean ratios S + AD/S, % (90% CI): AUC: 155.3 (138.6–173.9) %
Point estimates of the geometric LS mean ratios S + AD/S, % (90% CI): AUC0–t: 155.2 (140.5–171.5) %
Point estimates of the geometric LS mean ratios S + AD/S, % (90% CI): Cmax: 138.5 (118.9–161.3) %
Mean CL/F, L/h (SD) [1]: 59.0 (34.3) L/h
Median tmax, h (range) [1]: 0.5 (0.2–1.0) h

COc1ccc2[nH]c([S+]([O-])Cc3ncc(C)c(OC)c3C)nc2c1 (stereo not shown) [Omeprazole, omeprazole, reference compound]
Mean CL/F, L/h (SD) (human, in vivo): 13.3 (10.5) L/h
Median tmax, h (range) (human, in vivo): 3.0 (0.7–6.0) h
Vd/F (human, in vivo): 28.3 L
half-life (human, in vivo, Mean t½ h (SD)): 2 h

Cn1c(=O)[nH]c2ncn(C)c2c1=O [Paraxanthine, paraxanthine]
Mean MR (metabolic ratio in relation to parent compound), AUC (human, in vivo): 0.65
Mean MR (metabolic ratio in relation to parent compound), AUC0–t (human, in vivo): 0.54
Mean MR (metabolic ratio in relation to parent compound), Cmax (human, in vivo): 0.23
Median tmax, h (range) (human, in vivo): 8.0 (4.0–11.8) h
half-life (human, in vivo, Mean t½ h (SD)): 7 h

— paper PMC10363032 (Cancer Chemotherapy and Pharmacology, 2023)
